Results: ChEMBL document CHEMBL2321738, “Metabolites of the pyrimidine amine preladenant as adenosine a2a receptor antagonists” (ACS Med Chem Lett, 2013)
pKi: −log10 of the molar value.

Molecular target: Adenosine receptor A2a (Homo sapiens, UniProt P29274)
Assay: Binding affinity to human adenosine A2a receptor by competition binding assay

Sequence of Adenosine receptor A2a (P29274 whole entry): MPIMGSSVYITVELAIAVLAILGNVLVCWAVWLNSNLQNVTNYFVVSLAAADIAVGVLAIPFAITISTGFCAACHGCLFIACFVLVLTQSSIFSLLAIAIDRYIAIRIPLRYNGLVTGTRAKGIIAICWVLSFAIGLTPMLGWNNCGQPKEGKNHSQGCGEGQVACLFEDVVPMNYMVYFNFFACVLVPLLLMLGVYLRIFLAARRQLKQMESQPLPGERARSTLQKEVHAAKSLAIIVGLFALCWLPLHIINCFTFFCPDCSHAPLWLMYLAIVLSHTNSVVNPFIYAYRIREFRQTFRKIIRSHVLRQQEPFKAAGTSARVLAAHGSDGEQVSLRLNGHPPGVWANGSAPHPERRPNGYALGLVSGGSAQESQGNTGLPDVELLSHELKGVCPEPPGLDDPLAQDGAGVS

Row | pKi | Structure (SMILES)
1 | 8.85 | Nc1nc2c(cnn2CCN2CCN(c3ccc(OCC(=O)O)cc3)CC2)c2nc(-c3ccco3)nn12
2 | < 6.00 | Nc1nc2c(cnn2CC(=O)O)c2nc(-c3ccco3)nn12
3 | < 6.00 | Nc1nc2c(cnn2CCN2CCN(c3ccc(OCC(=O)O)cc3)CC2)c2nc(C(O)CCC(=O)O)nn12 (centres undefined)
4 | < 6.00 | COCCOc1ccc(N2CCN(CCn3ncc4c3nc(N)n3nc(C(O)CCC(=O)O)nc43)CC2)cc1 (centres undefined)
